Laboratory results: patent US12162855B2, “Tetrahydroquinolino derivatives for the treatment of metastatic and chemoresistant cancers” (THE TRUSTEES OF PRINCETON UNIVERSITY, priority 2018, dated 2024)
Values joined by “and” are separate entries in the source; they are usually repeats but may differ in a detail not shown here. Equal entries are not always repeated. Marks after values point to notes of the source that are not given here.

Legend:
[1] = Plasma pharmacokinetics in mice by LC/MS/MS; format: in vivo, mouse; details: for half-life / AUC(0-inf) / Clearance: mice, dose 25 mg/kg; for AUC(0-inf): noncompartment model
Description: Pharmacokinetic experiments were performed on 16-week old C57BL6 male mice. Mice were administered MBE1.5 (15% DMSO, 5% Kolliphor EL, 80% PBS) via IP injection. Blood was collected by terminal cardiac puncture at 15 minutes, 30 minutes, 1 hour, 3 hours, and 24 hours post-injection. Serum was obtained by blood separation via centrifugation at 16200 RCF for 1 min. Tissues were then collected following exsanguination. Serum and tissues were rapidly frozen in liquid nitrogen and submitted for pharmacokinetic evaluation.
Plasma MBE1.5 concentration was measured with LC/MS/MS assay in mice PK studies.
Chemicals: MBE1.5 and MBE2.0 were supplied as stocks (1 mg/mL) in MeOH with 1% DMSO. MBE2.0 was used as internal standard. HPLC grade acetonitrile and water were purchased from J.T. Baker (Center Valley, PA). The mouse plasma was purchased from Innovative Research (Novi, MI) for the preparation of plasma calibration standards.
Preparation of standard solution: MBE1.5 stock was diluted in control mice plasma to obtain calibration range from 8.2 ng/mL to 18 μg/mL. 1 μg/mL MBE2.0 in methanol was used as a working internal standard (IS).
Sample preparation: The plasma standard and mouse plasma samples (204) were spiked with 54 μL IS and deproteinized with 1204 acetonitrile and methanol (v/v 5:1). After centrifugation at 13000 rpm for 15 minutes, 254 of the supernatant was analyzed by LC-MS.
Liquid Chromatographic/Mass spectrometry: Quantitation of MBE1.5 was performed using TSQ Quantum triple quadruple mass spectrometer equipped with an API electrospray ionization (ESI) source, a Surveyor MS pump, a Surveyor Autosampler, with Xcalibur data acquisition software (ThermoElectron, San Jose, CA, USA).
LC conditions were as follows: mobile phase A: aqueous solution (0.1% formic acid); mobile phase B: acetonitrile (0.1% formic acid); flow rate 500 μL/min; gradient elution, 0 to 1 minute, 60% A; 1 to 2.5 minutes, 60% to 20% A; 2.5 to 7.0 minutes, 0% A, 7.0 to 9.0 minutes 0% A, 9.0 to 11.0 minutes, 0% to 60% A; and column: Luna® C18, 150×4.6 mm, 5 μm (Phenomenex, Torrance, CA). The retention times for MBE1.5 and IS were 6.3 minutes and 6.6 minutes, respectively.
MS/MS conditions were as follows: in single reaction monitoring mode, m/z 313.2/178.2 (MBE1.5), m/z 281.2/119.1 (MBE2.0, IS); ion spray voltage, 4500 v; capillary temperature 350° C.; sheath gas pressure 20 arbitrary units; Aux gas pressure 50 arbitrary units; collision pressure 1.5 arbitrary units. The collision energy and tube lens were optimized for each compound.
Calculation: Plasma calibration standards were used for the quantitation of MBE in plasma samples. The log linear regression was used for calibration curve to determine the concentration in plasma samples.
Preliminary PK data was analyzed using noncompartment model by Winnolin 2.0.

Aldh1a1 = target: T1, Aldh1a1 (Homo sapiens, UniProt P00352); experiment: ALDEFLUOR assay in MCF7 cells transduced with human Aldh1a1; format: cell-based; details: concentrations below 10 μM
T1 construct: expressed in transfected cells; host or cells: MCF7, lentiviral pLex vector
T1 sequence (P00352 1-501): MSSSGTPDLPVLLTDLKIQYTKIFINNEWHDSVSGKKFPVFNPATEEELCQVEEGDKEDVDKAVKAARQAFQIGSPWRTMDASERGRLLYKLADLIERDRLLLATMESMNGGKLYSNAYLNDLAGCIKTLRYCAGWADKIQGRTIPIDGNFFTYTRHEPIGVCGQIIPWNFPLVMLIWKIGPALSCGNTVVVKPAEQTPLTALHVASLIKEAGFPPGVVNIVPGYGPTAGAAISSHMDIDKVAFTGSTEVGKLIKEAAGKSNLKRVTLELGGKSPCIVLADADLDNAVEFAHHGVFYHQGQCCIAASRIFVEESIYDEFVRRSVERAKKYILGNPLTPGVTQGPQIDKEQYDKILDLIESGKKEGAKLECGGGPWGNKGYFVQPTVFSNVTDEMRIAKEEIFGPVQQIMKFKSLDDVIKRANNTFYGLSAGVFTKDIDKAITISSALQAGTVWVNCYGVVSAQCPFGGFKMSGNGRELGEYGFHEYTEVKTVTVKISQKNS
Description: The coding sequences of Aldh1a1, Aldh1a2, Aldh1a3 and Aldh3a1 were cloned from cDNA made from pooled human reference RNA samples. Cloned sequences flanked by Age1 and Xho1 restriction sites were inserted into the pLex lentiviral plasmid. Clones were sequenced and compared against NCBI expressed sequence tags (ESTs) for accuracy. […]. Viruses were collected and filtered at 0.45 μm, then cells were transduced using polybrene (8 μg/mL) for 12 hours, followed by culture with 1 μg/mL puromycin for the duration of experiments. All viral transduction and selection was performed on a cell population-wide basis.
Cells were counted, centrifuged and resuspended at 1,000,000 cells/mL in ALDEFLUOR™ buffer (Stemcell Technologies). ALDEFLUOR™ substrate (Stemcell Technologies, 1:200) and test compound or 1 mM DEAB were added to cell suspension and incubated at 37° C. for 45 minutes with vortexing every 15 minutes. Cells were centrifuged and resuspended in ALDEFLUOR™ buffer with DAPI at 5 μg/mL. Samples were analyzed with the BD LSR2 flow cytometry platform. Gating was performed using DEAB as a negative control.

[2] = Toxicity experiments in C57Bl6 mice (IP); format: in vivo
Description: All mice were originally ordered from the Jackson Laboratory (Bar Harbor, ME) and breeding was conducted in a specific pathogen-free (SPF) barrier facility. Toxicity experiments were performed on 8-12-week old male and female C57B16 mice. MBE1 was dissolved at 50 mg/mL in DMSO followed by a […] into Kolliphor EL, followed by a 1:5 dilution into PBS to yield a 5 mg/ml MBE1 solution, (10% DMSO, 10% Kolliphor EL, 80% PBS). This was administered via IP injection at ascending doses from 12.5 to 200 mg/kg body mass in a set of 3 mice at 24 h intervals. Body condition score, food uptake, fecal/urine production, behavior and body weight were measured as toxicity readouts. Five mice were then treated every 3 days with 25 mg/kg MBE1 for 18 days.

[3] = male, C57BL6, mouse, plasma, ip, 25 mg/kg, i.p., calculation: time point to 3 hr
[4] = male, C57BL6, mouse, plasma, ip, 25 mg/kg, i.p., calculation: time point to 24 hr

Row | Compound | Concentration in mouse plasma, individual mice ([1]; Time 0 hr, mice #1-#3, LOD 8.2 ng/mL) | Concentration in mouse plasma, individual mice ([1]; Time 0.5 hr, i.p., mice #1-#3) | Concentration in mouse plasma, individual mice ([1]; Time 1 hr, i.p., mice #1-#3) | Concentration in mouse plasma, individual mice ([1]; Time 3 hr, i.p., mice #1-#3) | Concentration in mouse plasma, individual mice ([1]; Time 24 hr, i.p., mice #1-#3, LOD 8.2 ng/mL) | Concentration in mouse plasma, individual mice, forced to calculate ([1]; Time 24 hr, i.p., mice #1-#3, integrated peak area less than LOD) | Concentration in mouse plasma, Mean ([1]; Time 24 hr, i.p., LOD 8.2 ng/mL) | concentration at 0.5 h ([1]; male, C57BL6, mouse, plasma, ip, 25 mg/kg, Time 0.5 hr) [µg/mL] | concentration at 1 h ([1]; male, C57BL6, mouse, plasma, ip, 25 mg/kg, Time 1 hr) [µg/mL] | concentration at 3 h ([1]; male, C57BL6, mouse, plasma, ip, 25 mg/kg, Time 3 hr) [µg/mL] | concentration at 24 h ([1]; male, C57BL6, mouse, plasma, ip, 25 mg/kg, Time 24 hr, i.p., integrated peak area less than LOD, read-out: Concentration in mouse plasma, Mean, forced to calculate) [µg/mL] | half-life [1, 3] [h] | AUC(0-inf) [1, 3] [µg·h/mL] | half-life [1, 4] [h] | AUC(0-inf) [1, 4] [µg·h/mL] | Clearance ([1]; i.p., calculation: time point to 3 hr) [mL/h] | Clearance ([1]; i.p., calculation: time point to 24 hr) [mL/h] | inhibition of Aldh1a1 activity (FIG. 2A) (Aldh1a1) | chronic toxicity (body condition score, food uptake, fecal/urine production, behavior, body weight) ([2]; 25 mg/kg every 3 days for 18 days) | acute toxicity (body condition score, food uptake, fecal/urine production, behavior, body weight) ([2]; ascending doses 12.5 to 200 mg/kg at 24 h intervals)
1 | CCc1ccccc1C(=O)Nc1cc2c(cc1F)NC(=O)CC2 [MBE1.5, 2-ethyl-N-(7-fluoro-2-oxo-1,2,3,4-tetrahydroquinolin-6-yl)benzamide] | <LOD | 6.932 µg/mL and 3.411 µg/mL and 4.650 µg/mL | 2.842 µg/mL and 6.295 µg/mL and 2.815 µg/mL | 1.704 µg/mL and 3.447 µg/mL and 0.849 µg/mL | <LOD | 0.002* μg/ml and 0.006* μg/ml and 0.005* μg/ml | <LOD | 5 | 3.98 | 2 | 0.004 | 1.9 | 15.7 | 2.32 | 16.9 | 39.87 | 36.96 | – | – | –
2 | CCc1cnccc1C(=O)Nc1cc2c(cc1F)NC(=O)CC2 [MBE1, 3-ethyl-N-(7-fluoro-2-oxo-1,2,3,4-tetrahydroquinolin-6-yl)isonicotinamide] | – | – | – | – | – | – | – | – | – | – | – | – | – | – | – | – | – | does not inhibit | Neither experiment showed any indication of either acute or chronic toxicity | Neither experiment showed any indication of either acute or chronic toxicity
